Experimental data: ChEMBL document CHEMBL1201862, “PubChem BioAssay data set” (2004)
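Following 48 hours of exposure in 96-well plates, responses at five concentrations were used to interpolate endpoints linearly. GI50: concentration for 50% inhibition of growth.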 Calls of active or inactive are those of the source. No stated cut-off is given here; in the data, active = GI50 up to about 1.1 µM and inactive = higher.

Tests used:
Test in all cases: inhibition of tumour cell growth, NCI panel, 48 h
XF498 = tested on: XF498
DLD-1 = tested on: DLD-1
M19-MEL = tested on: M19-MEL
LXFL 529 = tested on: LXFL 529
KM-20L2 = tested on: KM-20L2
DMS-114 = tested on: DMS-114
SNB-78 = tested on: SNB-78
HOP-18 = tested on: HOP-18
RXF 631 = tested on: RXF 631

Row | Structure (SMILES) | GI50 (XF498) | GI50 (DLD-1) | GI50 (M19-MEL) | GI50 (LXFL 529) | GI50 (KM-20L2) | GI50 (DMS-114) | GI50 (SNB-78) | GI50 (HOP-18) | GI50 (RXF 631)
1 | CC(=O)NC(CCCN)C(=O)NCc1ccccc1 (centres undefined) | > 100 µM (inactive) | > 100 µM (inactive) | > 100 µM (inactive) | > 100 µM (inactive) | > 100 µM (inactive) | > 100 µM (inactive) | > 100 µM (inactive) | – | –
2 | Cc1ccc([N+](=O)[O-])cc1NC(=O)c1cccc([N+](=O)[O-])c1O | 18.2 µM (inactive) | 20.7 µM (inactive) | 15.5 µM (inactive) | 19.1 µM (inactive) | 25.5 µM (inactive) | 8.73 µM (inactive) | 20.8 µM (inactive) | – | –
3 | COc1ccc(C(=O)Nc2ccn(CCOC(=O)c3ccc(OC)cc3)c(=O)n2)cc1 | > 100 µM (inactive) | > 100 µM (inactive) | > 100 µM (inactive) | > 100 µM (inactive) | > 100 µM (inactive) | > 100 µM (inactive) | 76.2 µM (inactive) | > 100 µM (inactive) | > 100 µM (inactive)
4 | CC(C)C1COC(C(C)(C)C2=N[C@@H](C(C)C)CO2)=N1 (some centres undefined) | > 100 µM (inactive) | > 100 µM (inactive) | > 100 µM (inactive) | > 100 µM (inactive) | > 100 µM (inactive) | > 100 µM (inactive) | – | > 100 µM (inactive) | > 100 µM (inactive)
5 | CC1=NN(C(=O)c2cc(Cl)cc([N+](=O)[O-])c2)C(=O)C1/N=N/c1ccccc1C(=O)O (centres undefined) | – | > 100 µM (inactive) | > 100 µM (inactive) | > 100 µM (inactive) | – | – | > 100 µM (inactive) | > 100 µM (inactive) | > 100 µM (inactive)
6 | CC1=C(C(=O)Nc2cc(F)c(F)cc2F)C(c2ccc(N(C)C)cc2)C(C(=O)Nc2cc(F)c(F)cc2F)=C(C)N1 | – | 34.9 µM (inactive) | 38 µM (inactive) | 19.3 µM (inactive) | 34 µM (inactive) | 17.2 µM (inactive) | 17.7 µM (inactive) | – | 23 µM (inactive)
7 | CC1CCc2c(sc3ncnc(N/N=C/c4ccc(Cl)cc4)c23)C1 (centres undefined) | – | 33.6 µM (inactive) | – | – | 22.8 µM (inactive) | – | – | – | –
8 | CCNC(=O)/C=C/CCC#Cc1ccc(-c2ccc(-c3cccs3)s2)s1 | 2.71 µM (inactive) | > 100 µM (inactive) | > 100 µM (inactive) | > 100 µM (inactive) | > 100 µM (inactive) | > 100 µM (inactive) | > 100 µM (inactive) | 4.82 µM (inactive) | –
9 | COC(=O)c1ccccc1NC(=O)C(=O)CC(=O)c1ccccc1NC1=CC(=O)C(=O)c2ccccc21 | 15.6 µM (inactive) | 4.57 µM (inactive) | 2.02 µM (inactive) | 5.09 µM (inactive) | 72.9 µM (inactive) | 1.71 µM (inactive) | 7.66 µM (inactive) | 7.59 µM (inactive) | 26.5 µM (inactive)
10 | O=C(O)CCSC(=S)Nc1cccc(F)c1 | – | 50.7 µM (inactive) | 28.2 µM (inactive) | 62.2 µM (inactive) | 89.1 µM (inactive) | 19.6 µM (inactive) | 97.1 µM (inactive) | > 100 µM (inactive) | –
11 | C=CCN1C(=O)CS/C1=N\NC(=O)c1c(C)nc2sccn12 | > 100 µM (inactive) | > 100 µM (inactive) | > 100 µM (inactive) | > 100 µM (inactive) | > 100 µM (inactive) | > 100 µM (inactive) | – | > 100 µM (inactive) | > 100 µM (inactive)
12 | CSc1n/c(=N\c2ccccc2)sn1-c1ccccc1 | – | – | 5.58 µM (inactive) | – | 13.6 µM (inactive) | 3.15 µM (inactive) | 20.7 µM (inactive) | – | –
13 | CCOCC(=O)N[C@H]1CCc2cc(OC)c(OC)c(OC)c2-c2ccc(OC)c(=O)cc21 | 0.0138 µM (active) | 0.019 µM (active) | < 0.0202 µM (active) | 0.024 µM (active) | 0.0118 µM (active) | 0.0148 µM (active) | < 0.0147 µM (active) | – | –
14 | c1ccc2c(NCCCCCCCCNc3c4ccccc4nc4ccccc34)c3ccccc3nc2c1 | 1.04 µM (active) | 0.143 µM (active) | 1.08 µM (active) | 0.213 µM (active) | 0.354 µM (active) | 1.01 µM (active) | 1.01 µM (active) | 1.76 µM (inactive) | 0.178 µM (active)
15 | O=C(Nc1c(-c2nc3ccccc3[nH]2)sc(=S)n1-c1ccccc1)c1ccccc1 | – | > 100 µM (inactive) | > 100 µM (inactive) | 58.9 µM (inactive) | – | 98.9 µM (inactive) | 61.7 µM (inactive) | > 100 µM (inactive) | > 100 µM (inactive)
16 | CN(C)CCNC(=O)c1cccc2ccc(-c3cccnc3)nc12 | – | 4.41 µM (inactive) | 5.71 µM (inactive) | – | – | 6.52 µM (inactive) | 7.11 µM (inactive) | 13.7 µM (inactive) | 3.48 µM (inactive)
17 | Cn1c(=O)c(NC(=O)C(Cl)(Cl)Cl)nc2ccccc21 | > 100 µM (inactive) | > 100 µM (inactive) | > 100 µM (inactive) | > 100 µM (inactive) | > 100 µM (inactive) | > 100 µM (inactive) | > 100 µM (inactive) | – | > 100 µM (inactive)
18 | Nc1nnc2nc(CC(=O)/C=C/c3ccccc3)c(=O)[nH]n12 | > 100 µM (inactive) | > 100 µM (inactive) | > 100 µM (inactive) | > 100 µM (inactive) | > 100 µM (inactive) | > 100 µM (inactive) | > 100 µM (inactive) | – | > 100 µM (inactive)
19 | CSc1nc2c(nc(N)n2C2OC(CO)C(O)C(O)C2O)c(=O)n1C (centres undefined) | > 100 µM (inactive) | > 100 µM (inactive) | > 100 µM (inactive) | > 100 µM (inactive) | > 100 µM (inactive) | > 100 µM (inactive) | > 100 µM (inactive) | > 100 µM (inactive) | –
20 | CC(=O)OCC1OC(N2C(=O)/C(=N\NC(N)=S)c3ccc([N+](=O)[O-])cc32)C(OC(C)=O)C1OC(C)=O (centres undefined) | 29.9 µM (inactive) | 29.6 µM (inactive) | 18.4 µM (inactive) | 50 µM (inactive) | 31.5 µM (inactive) | 23.1 µM (inactive) | 33.3 µM (inactive) | > 100 µM (inactive) | –
21 | COc1cccc2nc3cc(C)c(C)cc3nc12 | > 100 µM (inactive) | 79.1 µM (inactive) | > 100 µM (inactive) | > 100 µM (inactive) | > 100 µM (inactive) | > 100 µM (inactive) | > 100 µM (inactive) | > 100 µM (inactive) | > 100 µM (inactive)
22 | CC1(CO)C(=O)OC12CCCCC2 (centres undefined) | > 100 µM (inactive) | > 100 µM (inactive) | > 100 µM (inactive) | > 100 µM (inactive) | – | > 100 µM (inactive) | > 100 µM (inactive) | – | > 100 µM (inactive)
23 | CC(=O)O[C@]12CCCCCCC1C1(O)C(O)CCC[C@H]12 (some centres undefined) | > 100 µM (inactive) | – | > 100 µM (inactive) | > 100 µM (inactive) | > 100 µM (inactive) | > 100 µM (inactive) | > 100 µM (inactive) | > 100 µM (inactive) | –
24 | O=C1N2Cc3c4ccc5c3CN3C(=O)N6Cc7c(ccc(c7CN1C6(c1ccccc1)C23c1ccccc1)OCCOCCOc1cc(Br)c(Br)cc1OCCOCCO4)OCCOCCOc1cc(Br)c(Br)cc1OCCOCCO5 (centres undefined) | – | 20.2 µM (inactive) | > 100 µM (inactive) | 67.3 µM (inactive) | > 100 µM (inactive) | 41.2 µM (inactive) | > 100 µM (inactive) | > 100 µM (inactive) | > 100 µM (inactive)
